Laboratory results reported in US9067889B2, “Biphenylcarboxamides as ROCK kinase inhibitors” (Amakem NV, priority 2011, dated 2015).

Columns and labels:
[1] = Stability assay in rabbit aqueous humor; format: in vitro ADME; details: 1 μM compound in rabbit aqueous humor, LC-MS/MS
Description: C.2.2. Stability Assay in Rabbit Aqueous Humor
Compounds are incubated at a concentration of 1 μM in rabbit aqueous humor (AH). Samples are taken at fixed time points and the remnant of compound is determined by LC-MS/MS after protein precipitation.

[2] = Stability assay in human plasma; format: in vitro ADME; details: 1 μM compound in human plasma, LC-MS/MS
Description: C.2.1. Stability Assay in Human and/or Rat Plasma
Compounds are incubated at a concentration of 1 μM in human plasma (or rat, mice, dog, monkey, minipig or rabbit). Samples are taken at fixed time points and the remnant of compound is determined by LC-MS/MS after protein precipitation.

## COC(=O)Cc1cccc(NC(=O)c2cccc(-c3cc(C(=O)Nc4ccncc4F)ccc3CN)c2)c1 [Compound 1]
[1]
  t½ rabbit AH: 58 min
[2]
  t1/2(min) in human plasma: <60 min
